From ChEMBL document CHEMBL1129577, “Identification of a novel oxazolidinone (U-100480) with potent antimycobacterial activity” (1996)

Key:
[1] = tested on: Mycobacterium tuberculosis; assay: In vitro anti-mycobacterial activity against multiple resistant strains of Mycobacterium tuberculosis at 0.50 ug/mL; format: functional
[2] = tested on: Mycobacterium tuberculosis; assay: In vitro anti-mycobacterial activity against multiple resistant strains of Mycobacterium tuberculosis at 0.125 ug/mL; format: functional

Row | SMILES | No. of strains [1] | No. of strains [2]
1 | CC(=O)NC[C@H]1CN(c2ccc(N3CCS(=O)(=O)CC3)c(F)c2)C(=O)O1 | 4 | –
2 | CC(=O)NC[C@H]1CN(c2ccc(N3CCSCC3)c(F)c2)C(=O)O1 [SUTEZOLID] | 2 | 3
